This experiment concerns the target Tyrosine-protein kinase BTK (Homo sapiens, UniProt Q06187). As to the kind of experiment: Biochemical kinase assay wt-BTK. How it is done: To determine the inhibitory activity of compounds on wt-BTK enzyme activity, the IMAP assay (Molecular Devices) was used. Compounds were serially diluted in dimethylsulfoxide (DMSO) and subsequently in 4% DMSO in IMAP reaction buffer, which consists of 10 mM Tris-HCl, pH 15 7.5, 10 mM MgCl2, 0.01% Tween-20, 0.1% NaN3 and 1 mM freshly prepared dithiotreitol (DTT). Compound solution was mixed with an equal volume of full-length wt-BTK enzyme (Carna Biosciences, cat. no. 08-180) in IMAP reaction buffer. After pre-incubation of 1 hour in the dark at room temperature, fluorescein-labeled MBP-derived substrate peptide (Molecular Devices, cat. no. RP 7123) was added, followed by ATP to start the reaction. Final enzyme concentration was 1.2 nM, final substrate concentration 50 nM, and final ATP concentration was 4 μM. The reaction was allowed to proceed for 2 hours at room temperature in the dark. The reaction was stopped by quenching with IMAP progressive binding solution according to the protocol of the manufacturer (Molecular Devices). Fluorescein polarization was measured on an Envision multimode reader (Perkin Elmer, Waltham, MA, U.S.A.).

Structures are written as SMILES. Where only a bound is given, the exact number is not on record here.

Sequence of Tyrosine-protein kinase BTK (Q06187 whole entry): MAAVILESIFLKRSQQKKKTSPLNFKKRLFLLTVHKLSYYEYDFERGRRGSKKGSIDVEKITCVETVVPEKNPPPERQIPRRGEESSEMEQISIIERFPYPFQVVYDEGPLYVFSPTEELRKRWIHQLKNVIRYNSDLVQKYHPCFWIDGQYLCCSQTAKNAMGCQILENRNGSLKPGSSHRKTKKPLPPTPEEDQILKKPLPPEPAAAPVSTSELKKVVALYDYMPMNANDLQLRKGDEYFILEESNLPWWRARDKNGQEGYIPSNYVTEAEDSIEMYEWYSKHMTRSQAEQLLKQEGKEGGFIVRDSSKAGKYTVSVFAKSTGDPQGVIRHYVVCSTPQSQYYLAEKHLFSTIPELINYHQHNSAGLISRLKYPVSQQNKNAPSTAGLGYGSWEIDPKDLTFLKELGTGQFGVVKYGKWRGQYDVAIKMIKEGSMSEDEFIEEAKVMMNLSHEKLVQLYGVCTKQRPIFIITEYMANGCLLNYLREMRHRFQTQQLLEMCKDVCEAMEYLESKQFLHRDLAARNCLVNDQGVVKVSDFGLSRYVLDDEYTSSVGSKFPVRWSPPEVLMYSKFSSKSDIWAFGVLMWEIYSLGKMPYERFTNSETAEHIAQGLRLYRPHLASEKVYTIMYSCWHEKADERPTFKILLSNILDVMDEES

By IC50 is commonly meant the midpoint of a concentration-inhibition curve. For the compound `C[C@@H]1CCn2nc(-c3ccc(C(=O)Nc4cc(C(F)(F)F)ccn4)cc3)c3c(N)ncc(c32)/C=C/CCCCC(=O)N1` [US20250074911, Example 54], the half-inhibitory concentration (IC50) is less than 5 nM.

For the origin of these results see BindingDB's records for patent US20250074911 (Crossfire Oncology Holding, 2025).
